Experimental data from ChEMBL document CHEMBL3430912, “GSK Tres Cantos Anti-Kinetoplastid Screening (TCAKS) Data”.

Assays:
[1] = test system: Trypanosoma cruzi; assay: GSK_TCAKS: pIC50 Trypanosoma cruzi viability assay using beta-GAL activity. This assay was run at single shot at 5uM compound concentration per well. The biological reagents consisted of NIH-3T3 host cells and trypomastigotes parasitic cells; both cell types were set to a 3.3 * 10^5 cells/mL dilution in assay DMEM by means of a CASY cell counter device using a 60um capillary. 6 uL of the mixture were dispensed per well (about 1 * 10^3 host-cells and 1 * 10^3 parasites) with a Multidrop Combi dispenser. […] In all wells, the percentage of DMSO never exceeded 0.5%. Plates incubated for four days at 37C, 5% CO2. The substrate used for the assay fluorescence intensity (FLINT) readout was resorufin-beta-D-galactopiranoside (Sigma-Aldrich) at 5uM per well. It was diluted in PBS supplemented with the soft detergent Igepal (Fluka).; format: functional, organism-based, Mus musculus; settings: Tulahuen, NIH3T3
[2] = test system: Trypanosoma cruzi; assay: (§1) GSK_TCAKS: pIC50 Trypanosoma cruzi Imaging: Infected Cells. […] Cells were then washed once with PBS before infection. T. cruzi trypomastigotes, collected at days 5 to 8 after infection from LLC-MK2 parasite infected cultures, were allowed to swim out for 4h at 37C from a centrifuged pellet (2,500 rpm/10 min/room temperature). Trypomastigotes were then collected and counted in a CASY Cell Counter. Trypomastigotes, in supplemented DMEM, were added to H9c2 cultures in a multiplicity of infection of 1 and incubated for 18 h. Cells were washed once with PBS before incubation of the infected H9c2 monolayer with trypsin (Life-Technologies) to detach cells from the flask. Cells were counted in a CASY Cell Counter using a 150 um capillary and their density set at 5 * 10^4 cells per mL in supplemented assay DMEM. Infected H9c2 were dispensed into 384-well poly-lysine coated assay plates at 50uL per well using a Multidrop Combi dispenser. After seeding them, the plates were incubated at 37C, 5% CO2 for 72h. Cultures were then fixed and stained by addition of 50 uL of a solution containing 8% formaldehyde and 4 uM DRAQ5 DNA dye (BioStatus, UK) per well. […] Five images were collected per well for reliable statistical analysis. Automated image analysis was performed with a script developed on Acapella High Content Imaging and Analysis Software (PerkinElmer). Output: percentage of infected cells per well as a second infection marker.; format: functional, organism-based, Rattus norvegicus; settings: H9c2, 4 h
[3] = test system: Trypanosoma cruzi; assay: GSK_TCAKS: pIC50 Trypanosoma cruzi Imaging: Amastigotes/Cell. […] Cells were then washed once with PBS before infection. T. cruzi trypomastigotes, collected at days 5 to 8 after infection from LLC-MK2 parasite infected cultures, were allowed to swim out for 4h at 37C from a centrifuged pellet (2,500 rpm/10 min/room temperature). Trypomastigotes were then collected and counted in a CASY Cell Counter. Trypomastigotes, in supplemented DMEM, were added to H9c2 cultures in a multiplicity of infection of 1 and incubated for 18 h. Cells were washed once with PBS before incubation of the infected H9c2 monolayer with trypsin (Life-Technologies) to detach cells from the flask. Cells were counted in a CASY Cell Counter using a 150 um capillary and their density set at 5 * 10^4 cells per mL in supplemented assay DMEM. Infected H9c2 were dispensed into 384-well poly-lysine coated assay plates at 50uL per well using a Multidrop Combi dispenser. After seeding them, the plates were incubated at 37C, 5% CO2 for 72h. Cultures were then fixed and stained by addition of 50 uL of a solution containing 8% formaldehyde and 4 uM DRAQ5 DNA dye (BioStatus, UK) per well. […] Five images were collected per well for reliable statistical analysis. Automated image analysis was performed with a script developed on Acapella High Content Imaging and Analysis Software (PerkinElmer). Output: number of amastigotes per cell as infection level measurement.; format: functional, organism-based, Rattus norvegicus; settings: H9c2, 4 h
[4] = test system: Trypanosoma cruzi; assay: as §1, with “H2C9” for “Trypanosoma cruzi”, “H9c2 Host Cardiomyocytes.” for “Infected Cells.”, “Number” for “percentage”, “H9c2 Host Cardiomyocytes nuclei to determine drug-related cytotoxicity.” for “infected cells per well as a second infection marker.”; format: functional, organism-based, Rattus norvegicus; settings: H9c2, 4 h
[5] = test system: Leishmania donovani; assay: GSK_TCAKS: pIC50 Leishmania donovani viability assay using fluorescence intensity. Assay plates (1536-well) were prepared by adding 30nL per well of compound. For single shot assay, the final compound concentration was 5uM. […] Briefly, eGFP LdBOB axenic amastigotes were harvested, fixed and counted in a CASY cell counter (Roche-Applied Science). A final concentration of 1.5 * 10^5 cells per well were prepared in amastigote media containing 500 U/mL penicillin/streptomycin (Invitrogen) and 6uL was dispensed to each experimental well using a Multidrop Combi dispenser (Thermo Scientific). 6uL of assay media was dispensed to control columns used as reference for 100% compound response. Following incubation for 72 h at 37C, 5% CO2, 2 uL of resazurin was added to each well at a final concentration of 0.5 mM in phosphate buffered saline (PBS) with IGEPAL (Sigma-Aldrich), 0.05% (v/v).; format: functional, organism-based
[6] = test system: Leishmania donovani; assay: GSK_TCAKS: pIC50 Leishmania donovani Imaging: Infected Macrophages. Assay plates (384-well) were prepared by adding 250nL of compound to each well. For single shot assay, the final compound concentration was 5 uM. […] Automated image analysis was performed with a script developed on Acapella High Content Imaging and Analysis Software (PerkinElmer). Output: Percent of infected macrophage cells were reported for each well.; format: functional, organism-based, Homo sapiens; settings: THP-1
[7] = test system: Leishmania donovani; assay: GSK_TCAKS: pIC50 Leishmania donovani Imaging: Amastigotes/Macrophages. Assay plates (384-well) were prepared by adding 250nL of compound to each well. For single shot assay, the final compound concentration was 5 uM. […] Automated image analysis was performed with a script developed on Acapella High Content Imaging and Analysis Software (PerkinElmer). Output: Average number of amastigotes per macrophage cell were reported for each well.; format: functional, organism-based, Homo sapiens; settings: THP-1
[8] = test system: Leishmania donovani; assay: GSK_TCAKS: pIC50 Leishmania donovani Imaging: THP-1 Host Macrophages. Assay plates (384-well) were prepared by adding 250nL of compound to each well. For single shot assay, the final compound concentration was 5 uM. […] Automated image analysis was performed with a script developed on Acapella High Content Imaging and Analysis Software (PerkinElmer). Output: THP-1 cell count were reported for each well.; format: functional, organism-based, Homo sapiens
[9] = test system: Trypanosoma brucei brucei; assay: GSK_TCAKS: pIC50 Trypanosoma brucei viability assay using fluorescence intensity. Assay plates (1536-well) were prepared by dispensing 25nL of compound solution per well using an Echo acoustic dispenser (Labcyte).; format: functional, organism-based; settings: Lister 427, 2 h
[10] = test system: Trypanosoma brucei brucei; assay: GSK_TCAKS: pIC50 Trypanosoma brucei viability assay using luminiscence. Assay plates (1536-well) were prepared. T. brucei cultures were harvested and counted in a CASY cell counter. A parasite suspension was prepared at a final concentration of 5 * 10^4 cells/mL in complete HMI9 medium and 6uL was dispensed to all wells containing compounds using a Multidrop Combi dispenser. 6uL of HMI9 media with 0.4% DMSO were dispensed to control columns. Plates were incubated for 24 h at 37C, 5% CO2 then tempered for 10 min at room temperature. ATP content was quantified by adding 4 uL of CellTiter-Glo Reagent (Promega) according to the manufacturer's instructions. Luminescence was measured using a ViewLux.; format: functional, organism-based; settings: Lister 427, CASY
[11] = GSK_TCAKS: pIC50 HepG2 human cell line viability assay using luminiscence. […] Seeding density was checked to ensure that new mono-layers were not more than 50% confluent at the time of harvesting. Cell suspension was added to 500 mL of the same medium at a final density of 1.2 * 10^5 cells/mL. This cell suspension was dispensed (25 uL, 3000 cells per well) into 384-well clear-bottom plates using a Multidrop Combi dispenser. Prior to addition of the cell suspension, the screening compounds (250 nL) were pre-dispensed into the plates with an Echo liquid handler. Plates were incubated for 48 h at 37C, 5% CO2. After incubation, plates equilibrated at room temperature for 30 min before proceeding to develop the luminescent signal. The signal developer, CellTiter-Glo Reagent, was allowed to equilibrate at room temperature for 30 min and added to the plates (25uL per well) using a Multidrop Combi dispenser. Plates were left for 10 min at room temperature for stabilization and then read using a ViewLux.; format: toxicity, cell-based
[12] = target: Sterol 14-alpha demethylase (Trypanosoma cruzi (strain CL Brener), UniProt Q7Z1V1); assay: GSK_TCAKS: pIC50 CYP51 from Trypanosoma cruzi.; format: functional
Chain of Sterol 14-alpha demethylase (Q7Z1V1 whole entry): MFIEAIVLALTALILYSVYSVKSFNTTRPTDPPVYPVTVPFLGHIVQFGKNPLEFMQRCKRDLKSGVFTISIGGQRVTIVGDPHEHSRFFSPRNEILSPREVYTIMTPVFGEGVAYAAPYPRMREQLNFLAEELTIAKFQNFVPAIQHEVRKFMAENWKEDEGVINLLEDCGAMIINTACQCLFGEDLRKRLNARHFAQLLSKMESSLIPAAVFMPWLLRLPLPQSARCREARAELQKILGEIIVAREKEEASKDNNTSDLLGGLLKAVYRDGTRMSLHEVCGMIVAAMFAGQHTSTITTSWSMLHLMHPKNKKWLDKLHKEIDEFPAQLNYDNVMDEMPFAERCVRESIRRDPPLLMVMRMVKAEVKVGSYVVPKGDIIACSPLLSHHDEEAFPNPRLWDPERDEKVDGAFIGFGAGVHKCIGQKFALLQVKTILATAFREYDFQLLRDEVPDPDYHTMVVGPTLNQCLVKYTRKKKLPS

Compound | IC50 [1] [µM] | IC50 [2] [µM] | IC50 [3] [µM] | IC50 [4] [µM] | IC50 [5] [µM] | IC50 [6] [µM] | IC50 [7] [µM] | IC50 [8] [µM] | IC50 [9] [µM] | IC50 [10] [µM] | IC50 at 48 h [11] [µM] | IC50 [12] [µM]
Cc1ccnc(NS(=O)(=O)c2ccc(NC(=O)c3ccc([N+](=O)[O-])s3)cc2)n1 | 2 | 10 | 6.31 | 5.01 | 3.98 | 10 | 5.01 | 10 | 0.2 | 0.398 | 15.8 | 63.1
O=C(NCCCn1cnc2ccccc21)c1ccc(NC(=O)c2ccco2)cc1 | 3.98 | 2 | 1.26 | > 50.1 | 1.26 | > 50.1 | 12.6 | > 50.1 | 0.2 | 0.251 | 15.8 | 15.8
CCN(Cc1cccs1)C(=O)CSc1nnc(-c2ccc3c(c2)OCO3)o1 | 3.98 | 2.51 | 1.58 | > 50.1 | 3.16 | 2 | 2 | > 50.1 | 25.1 | > 39.8 | > 100 | 7.94
C=CCN(Cc1cccs1)C(=O)CSc1nnc(-c2ccc3c(c2)OCO3)o1 | 6.31 | 0.631 | 0.501 | > 50.1 | 6.31 | 3.16 | 1.26 | > 50.1 | 20 | 39.8 | > 100 | 7.94
N#Cc1cnc(Nc2cccc(CCN3CCOCC3)c2)nc1Nc1ccccc1C(N)=O | 1.26 | 3.16 | 2 | 0.0126 | 2.51 | 1.58 | 1 | 0.794 | 0.0631 | 0.251 | 25.1 | 10
CCOc1ccc(N(C)S(=O)(=O)c2ccc3[nH]cc(C(=O)NC4CCCC4)c(=O)c3c2)cc1 | 7.94 | > 50.1 | 6.31 | > 50.1 | > 50.1 | 31.6 | 31.6 | 25.1 | 0.251 | 0.501 | 50.1 | 6.31
CCC(=O)N1N=C(c2ccc3c(c2)CCCC3)Sc2c1ncn2C(=O)CC | 6.31 | 20 | 12.6 | > 50.1 | 25.1 | 3.16 | 2.51 | > 50.1 | 15.8 | 20 | > 100 | > 100
Cc1cc(NC(=O)C2CC2)ccc1OC1CCN(Cc2ccco2)CC1 | 15.8 | 39.8 | 20 | 39.8 | > 50.1 | 20 | 12.6 | 12.6 | 0.126 | 0.251 | 50.1 | 63.1
c1ccc(Nc2nc(-c3ccccn3)cc(N3CCOCC3)n2)cc1 | 2 | > 50.1 | 25.1 | 0.631 | 6.31 | 2 | 1.26 | > 50.1 | 15.8 | 12.6 | > 100 | > 100
CCNc1cc(-c2ccccn2)nc(Nc2ccccc2)n1 | 0.794 | 3.16 | 3.16 | 0.251 | 2.51 | 0.794 | 0.631 | 20 | 25.1 | 12.6 | 25.1 | > 100
CCNc1cc(-c2ccccn2)nc(Nc2ccc(OC)cc2)n1 | 0.708 | 3.16 | 2.51 | 0.316 | 1.58 | 0.501 | 0.398 | 25.1 | 12.6 | 10 | 39.8 | 39.8
